ChEMBL document CHEMBL1141915, “1,3-Dioxo-4-methyl-2,3-dihydro-1H-pyrrolo[3,4-c]quinolines as potent caspase-3 inhibitors” (Bioorg Med Chem Lett, 2005)

Target: T1, Caspase-3 (Homo sapiens, UniProt P42574)
T1 sequence (P42574 whole entry): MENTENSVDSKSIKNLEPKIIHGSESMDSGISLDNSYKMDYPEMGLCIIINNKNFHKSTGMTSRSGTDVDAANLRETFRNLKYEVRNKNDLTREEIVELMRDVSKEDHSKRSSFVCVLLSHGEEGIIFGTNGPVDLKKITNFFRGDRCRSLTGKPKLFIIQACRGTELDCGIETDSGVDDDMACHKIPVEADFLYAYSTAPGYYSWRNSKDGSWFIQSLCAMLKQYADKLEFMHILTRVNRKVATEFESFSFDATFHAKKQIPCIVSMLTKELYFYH
Test: In vitro inhibitory concentration measured against caspase-3

| IC50 | Compound |
| --- | --- |
| > 100 µM | Cc1nc2ccccc2c2c1C(=O)NC2=O |
| 6.36 µM | Cc1nc2ccccc2c2c1C(=O)N(C)C2=O |
